Data set [1] deals with human conjunctival tissue mast cells. Kind of data set: Histamine release from human conjunctival mast cells (anti-human IgE challenge). In kind it is cell-based. The conditions noted are these: Mast cell; goat-anti-human IgE 10 μg/mL challenge 15 min, after 1 or 15 minutes drug treatment; read-out: Human Conjunctiva Mast Cell Histamine Release IC50. The procedure:
Methods detailing preparation of monodispersed human conjunctival tissue mast cell and mediator release studies with these cells have been described (Miller et al. 1996). Briefly, human conjunctival tissue mast cells were isolated from post-mortem tissue donors obtained within 8 hours of death by various eye banks and transported in Optisol® corneal preservation medium. Tissues were enzymatically digested by repeated exposure (30 min. at 37° C.) to collagenase and hyaluronidase (2× with 200 U each/gm tissue, then 2-4× with 2000 U each/gm tissue) in Tyrode's buffer containing 0.1% gelatin. Each digestion mixture was filtered over Nitex® cloth (100 μm mesh) and washed with an equal volume of buffer. Filtrates were centrifuged at 825×g (7 min). Pellets were resuspended in buffer then combined for enrichment over a […] Percoll® cushion. The enriched pellet was washed and resuspended in supplemented RPMI 1640 medium for equilibration at 37° C.
Cells were harvested from the culture plate and counted for viability (trypan blue exclusion) and mast cell number (toluidine blue 0). Mast cells (5000/tube; 1 mL final volume) were challenged (37° C.) for 15 min with goat-anti-human IgE (10 μg/mL) following treatment (1 or 15 minutes; 37° C.) with test drug or Tyrode's buffer. Total and non-specific release controls were exposed to 0.1% Triton X-100 and goat IgG (10 μg/mL), respectively. The reaction was terminated by centrifugation (500×g, 4° C., 10 min). Supernatants were stored at −20° C. until analyzed for histamine content by R I A Miller, S. et al., Ocular Immunology and Inflammation 4(1): 39-49 (1996).

The target in the next data set is T1, H1 histamine receptor (Cavia porcellus, UniProt P31389).
T1 construct: tissue Pel-Freez (Rogers, Ark.); host or cells: guinea pig forebrain homogenate (washed membranes)
Kind of data set: Histamine receptor radioligand binding in washed rodent brain homogenates ([3H]pyrilamine). Set-up: species or system guinea pig. The conditions noted are these: 23° C. for 40 min. The procedure:
Histamine receptor binding was conducted in washed rodent brain homogenates. Briefly, guinea pig forebrains (for H1 and H2 receptors) and rat forebrains (for H3 receptor), obtained from Pel-Freez (Rogers, Ark.) were homogenized in 20 ml ice-cold phosphate buffered saline (PBS; pH 7.4) using a Polytron tissue disrupter (setting 5-7 for 10 sec) and centrifuged at 40,000 g for 15 min on a Beckman J2-MC centrifuge. The supernatants were discarded, the tissue pellets re-homogenized in fresh PBS buffer and centrifuged as described above. The final pellets were dispersed in 50 mM sodium potassium phosphate buffer (pH 7.5) and kept frozen at −40° C. until used in the binding assays.
The H1 histamine receptor binding assays were performed according to previously published methods with minor modifications (Chang, R. S. L., Tran, V. T., and Snyder, S. H. J. Neurochem., 32:1653-1663, 1979, Hill, S. J., Young, J. M., and Marrian, D. H. Nature, 270:361-363, 1977, Gajtkowski, G. A., Norris, D. B., Rising, T. J., and Wood, T. P. Nature, 304:65-67,1983, Korte, A., Myers, J., Shih, N.-Y., Egan, R. W., and Clark, M. A. Biochem. Biophys. Res. Comm., 168:979-986, 1990 . Briefly, 50 μl of [3H]pyrilamine (1-2 nM); 24 Ci/mmol from NEN, Boston, Mass.), [3H]tiotidine (4-5 nM; 87 Ci/mmol from NEN, Boston, Mass.) or [3H]N-methyl histamine (1-2 nM; 84 Ci/mmol from NEN, Boston, Mass.) were incubated with 200 μl of 2.5-4.0 mg/ml of frozen-thawed brain homogenates in the presence or absence of unlabeled test compounds (50 μl; 10 pM-100 μM) in a total volume of 500 μl in polypropylene tubes. The non-specific binding was determined with 5 mM histamine. Drug dilutions and dispensing of assay components were performed using a computer-controlled automated system (Biomek; Beckman, Fullerton, Calif.). The assays were conducted at 23° C. for 40 min and then terminated by rapid filtration over Whatman GF/B glass fiber filters presoaked in 0.3% polyethyleneimine using a Tomtec cell harvester (Gaithersburg, Md.). The assay tubes were rinsed with 2×6 ml of ice-cold 50 mM TrisHCl buffer (pH 7.4). The filter-bound radioactivity was determined on a Wallac Beta-plate (Gaithersburg, Md.) solid scintillation counter at 40-50% efficiency. The competition binding data were analyzed using an iterative curve-fitting computer program as previously described Michel, A. D. and Whiting, R. L. Brit. J. Pharmacol., 83:460p, 1984, Sharif, N. A., Wong, E. H. F., Loury, D., Stefanich, E., Eglen, R. M., Michel, A. D., and Whiting, R. L. Brit. J. Pharmacol., 102:919-925, 1991,. The drug affinities (dissociation constants, Kis) were calculated according to the Cheng-Prussof equation (Cheng, Y.-C. and Prusoff, W. H. Biochem. Pharmacol., 22:3099-3018, 1973 ): Ki=IC50/(1+L/Kd) where IC50 is the concentration of the drug needed to produce 50% inhibition of the receptor binding, L is the radioligand concentration in the assay and Kd is the dissociation constant of the radioligand.

In data set [2] the test system is Histamine induced vascular permeability in guinea pig conjunctiva. Nature of the data set: Histamine induced vascular permeability in guinea pig conjunctiva. It is filed as in vivo. The following applies: topical 20 μl onto eye, 30 min before subconjunctival histamine. The protocol: Male Dunkin Hartley Viral Antibody Free out bread guinea pigs (Charles River Labs, Portage, Mich.), 250-350 grams, (6/group) were injected intravenously (i.v.) via the marginal ear vein with 1.0 ml of Evans Blue dye (1.0 mg/ml). Forty-five (45) min post dye injection, 20 μl of test compound or vehicle was applied topically onto one eye of each experimental animal. Thirty (30) min following topical drug application, guinea pigs were anesthetized and challenged subconjunctivally with histamine (300 ng/10 μl). Responses were quantitated as previously described by Yanni, J. M., Weimer, L. K., Glaser, R. K., Lang, L. S., Robertson, S. M., and Spellman, J. M. Int. Arch. Allergy Immunol. 101:102-106, 1993

[3] abbreviates: % inhibition at concentration 0.01%.
[4] abbreviates: % inhibition at concentration 0.1%.

Experimental findings from patent US20050288283A1, “Topical formulations for treating allergic diseases” (Alcon, Inc., priority 2004, published 2005) are described below.

Where a name gives a salt, the structure may show the parent alone.

Usually IC50 stands for the concentration needed to halve the response being measured. As usually defined, the melting point is the temperature, or range, at which the solid turns liquid.

T1 sequence (P31389 whole entry): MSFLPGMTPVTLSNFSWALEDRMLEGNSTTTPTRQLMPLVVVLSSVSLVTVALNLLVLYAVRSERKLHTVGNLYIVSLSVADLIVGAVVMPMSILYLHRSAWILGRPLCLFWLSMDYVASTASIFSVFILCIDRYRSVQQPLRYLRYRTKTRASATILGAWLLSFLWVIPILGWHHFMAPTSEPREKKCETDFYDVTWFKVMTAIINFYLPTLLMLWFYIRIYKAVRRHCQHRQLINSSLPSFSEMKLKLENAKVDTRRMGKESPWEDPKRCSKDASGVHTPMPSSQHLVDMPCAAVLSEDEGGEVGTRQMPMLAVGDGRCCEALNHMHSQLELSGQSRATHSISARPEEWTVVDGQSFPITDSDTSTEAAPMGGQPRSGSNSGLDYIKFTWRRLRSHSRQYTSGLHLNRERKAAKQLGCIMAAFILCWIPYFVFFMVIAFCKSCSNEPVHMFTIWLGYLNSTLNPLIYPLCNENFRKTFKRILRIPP

Turning to `CN(C)CC/C=C1/c2ccccc2COc2ccc(CC(=O)NCCO)cc21` [Example 5, 2-[11Z-(3-Dimethylaminopropylidene)-6,11-dihydrodibenzo[b,e]oxepin-2-yl]-N-(2-hydroxyethyl)acetamide], the IC50 in data set [1] was 770 µM; at H1 histamine receptor, 0.0013 µM. Moreover, in data set [2] (setting [3]), the “Histamine Induced Vascular Permeability ED50 or [Concentration] and (% inhibition)” value was 0.01% (43%).
For `CC(=O)NCCc1ccc2c(c1)/C(=C\CCN(C)C)c1ccccc1CO2` [Example 10, N-[2-[11-(3-Dimethylaminoprop-(Z)-ylidene)-6,11-dihydrodibenzo[b,e]-oxepin-2-yl]ethyl}-acetamide], the IC50 turned out to be 13 µM in data set [1] and 0.054 µM at H1 histamine receptor. Moreover, in data set [2] (setting [4]), the “Histamine Induced Vascular Permeability ED50 or [Concentration] and (% inhibition)” value is reported as 0.1% (41%).
With `CN(C)CC/C=C1/c2ccccc2COc2ccc(CC(=O)NC[C@@H]3CCCO3)cc21` [Example 1, (S)-2-{11-[3-Dimethylamino-prop-(Z)-ylidene]-6,11-dihydro-dibenz[b,e]-oxepin-2-yl}-N-tetrahydro-furan-2-ylmethyl)acetamide fumaric acid salt], the IC50 in data set [1] was found to be 61 µM.
For the compound `CN(C)CC/C=C1/c2ccccc2COc2ccc(CCNS(C)(=O)=O)cc21` [Example 9, N-{2-[11-(3-Dimethylaminoprop-(Z)-ylidene)-6,11-dihydrodibenzo[b,e]-oxepin-2-yl]ethyl}-methanesulfonamide], the IC50 in data set [1] amounted to 15 µM; on H1 histamine receptor, 0.127 µM. Also, the “Histamine Induced Vascular Permeability ED50 or [Concentration] and (% inhibition)” value in data set [2] (% inhibition at concentration 0.018%) is on record as 0.018% (74%).
Consider `CN1CCC(=C2c3ccccc3COc3ccc(OCC(=O)O)cc32)CC1` [Example 11, [11-(1-Methylpiperidin-4-ylidene)-6,11-dihydrodibenzo[b,e]oxepin-2-yloxy]acetic acid hydrochloride], for which the IC50 in data set [1] came to 220 µM.
Regarding `CNC(=O)Cc1ccc2c(c1)/C(=C\CCN(C)C)c1ccccc1CO2` [Example 4, 2-[11Z-(3-Dimethylaminopropylidene)-6,11-dihydrodibenzo[b,e]oxepin-2-yl]-N-methylacetamide], the values for the IC50 (in data set [1]; at H1 histamine receptor) were 220 µM and 0.0026 µM, respectively. For the same compound, the “Histamine Induced Vascular Permeability ED50 or [Concentration] and (% inhibition)” value in data set [2] (setting [4]) is 0.1% (55%).
As to `CN(C)CC/C=C1/c2ccccc2COc2ccc(CC(=O)N(C)C)cc21` [Example 6, 2-[11Z-(3-Dimethylaminopropylidene)-6,11-dihydrodibenzo[b,e]oxepin-2-yl]-N,N-dimethylacetamide], the IC50 amounted to 400 µM in data set [1] and 0.0026 µM on H1 histamine receptor. Further, the “Histamine Induced Vascular Permeability ED50 or [Concentration] and (% inhibition)” value in data set [2] (setting [3]) is given as 0.01% (56%).
In the case of `CN(C)CC/C=C1/c2ccccc2COc2ccc(CC(N)=O)cc21` [Example 3, 2-[11Z-(3-Dimethylaminopropylidene)-6,11-dihydrodibenzo[b,e]oxepin-2-yl]acetamide], the IC50 was found to be 480 µM in data set [1] and 0.0022 µM at H1 histamine receptor. Besides, the “Histamine Induced Vascular Permeability ED50 or [Concentration] and (% inhibition)” value in data set [2] (% inhibition at concentration printed as 0.018 (no % sign)) is listed as 0.018 (59%).
As for `CCN(CC)CCC1CCN(CCc2ccc3c(c2)/C(=C\CCN(C)C)c2ccccc2CO3)CC1` (as salt: fumaric acid salt) [Example 7, {3-[2-{2-[4-(2-Diethylamino-ethyl)-piperidin-1-yl]-ethyl}-6H-6,11-dibenz[b,e]oxepin-(11Z)-ylidene]-propyl}-dimethylamine fumaric acid salt], the melting point fell in the range of 65 to 67 °C.
For `CN(C)CC/C=C1/c2ccccc2COc2ccc(CCN)cc21` [Example 8, {3-[2-(2-Aminoethyl)-6H-dibenzo[b,e]oxepin-11-ylidene]propyl}-dimethylamine], the IC50 in data set [1] was determined as 2 µM. Further, the “Histamine Induced Vascular Permeability ED50 or [Concentration] and (% inhibition)” value in data set [2] (setting [4]) is reported as 0.1% (32%).
With `CCN(CC)CCC1CCN(C(=O)Cc2ccc3c(c2)/C(=C\CCN(C)C)c2ccccc2CO3)CC1` [Example 2, 1-[4-(2-Diethylamino-ethyl)-piperidin-1-yl]-2-{11-[3-dimethylamino-prop-(Z)-ylidene]-6,11-dihydro-dibenz[b,e]oxepin-2-yl}-ethanone fumaric acid salt], the IC50 in data set [1] is 2 µM.
